Laboratory results as given in patent US20260306579A1, “COMPOSITIONS AND METHODS FOR TREATMENT OF SEPTIC SHOCK” (PEROXITECH THERAPEUTICS, INC., priority 2023, published 2026).
Entries after “also recorded” stand apart in the source; their conditions may differ. Peptide text beside a SMILES is read from it.

Key:
[1] = system: Prdx6; settings: role: inhibitor; background statement; cited from earlier work
[2] = system: ALI in mice; settings: variety of mouse models of ALI; cited from earlier work
[3] = system: pancreatic PLA2; settings: role: inhibitor; background statement; cited from earlier work
[4] = system: LPS-induced sepsis in pigs; assay: Adverse effects in the LPS-induced ALI model in pigs / tolerability statements; parameters: species or system Yorkshire pigs (Sus scrofa domesticus); settings: pig, in vivo; listed as PIP-2
Protocol: Prior to start of the experiment, the battery of systemic, cardiovascular, and pulmonary tests was carried out. These are called baseline measurements. Pigs were infused IV (zero time) with: Group 1, liposomes alone, no LPS (control, n=2); Group 2, LPS+liposomes (ALI untreated, n=6); and Group 3, LPS+PIP-2 in liposomes (ALI treated, n=12). Technical personnel responsible for animal care were “blinded” to the treatment conditions. LPS was given as an IV infusion of 50 ug/kg body weight over the first hour of the experiment. […] Either liposomes alone (Group 2) or PIP-2 in liposomes (Group 3) was infused as a “slow” bolus at the end of the LPS infusion. Liposomes were given at 2.22 mg/kg body weight. PIP-2 was given at 20 mg/kg body weight. Based on the measured encapsulation efficiency of ~15-20%, the IV administered PIP-2 was ~3-4 mg/kg body weight in liposomes and the remainder was in aqueous solution; presumably, the encapsulated PIP-2 was internalized by cells while the unencapsulated PIP-2 remained extracellular.

[5] = discussion statement, no data shown; cited from earlier work

Molecule: CCCCCCCCCCCCCCCCOCC(COCC(F)(F)F)OP(=O)(O)OC (stereo not drawn) [MJ33]
- inhibition of aiPLA2 / PLA2 activity of Prdx6 (in words) [1]: bind to Prdx6 preventing aiPLA2 activity
- effect on lung injury in mouse ALI models (in words) [2]: can significantly ameliorate lung injury; also recorded: markedly protective effect against lung injury
- inhibition of other PLA2 enzymes (in words) [3]: inhibits various PLA2 enzymes such as pancreatic PLA2

Molecule: CC[C@H](C)[C@H](NC(=O)[C@H](CCC(N)=O)NC(=O)[C@H](Cc1c[nH]cn1)NC(=O)[C@H](CCCNC(=N)N)NC(=O)[C@H](Cc1ccccc1)NC(=O)[C@H](CC(=O)O)NC(=O)[C@H](Cc1c[nH]cn1)NC(=O)[C@@H](N)CC(C)C)C(=O)N[C@@H](CC(C)C)C(=O)O [SEQ ID NO: 2] (H-LHDFRHQIL-OH)
- adverse side-effects / toxicity (in words) [4]: no evidence of adverse side-effects; also recorded: non-toxic
- tissue half-life (in words) [5]: relatively favorable tissue half-life

Molecule: SP-A: surfactant protein A (SP-A), 246 amino acids of human SP-A
- inhibition of aiPLA2 / PLA2 activity of Prdx6 (in words) [1]: bind to Prdx6 preventing aiPLA2 activity; also recorded: binds to Prdx6 and inhibits its aiPLA2 activity
